From patent US7476514B2, “Method for monitoring the immune response and predicting clinical outcomes in transplant recipients” (Cylex, Inc., priority 2002, dated 2009)

Tested on: CD4 cells
Assay: Cylex Immune Cell Function Assay (ImmuKnow): PHA-stimulated intracellular ATP in CD4 cells from whole blood of treated transplant patient
Type: cell-based, human
Description: Whole blood (100 μl of a 1:4 dilution) was tested in quadruplicate with or without phytohemagglutinin (PHA) (2.5 μg/mL) overnight (15-18 hours in a CO2 incubator at 37° C.). Anti-human CD4 monoclonal antibody coated magnetic particles (Dynal Biotech A.S.A., Oslo, Norway) were added to immunoselect CD4 cells from both the stimulated and non-stimulated wells. After washing the CD4 cells selected on a strong magnet (Cylex™ Cat. 1050) a lysing reagent was added to release intracellular ATP. A luciferin/luciferase mixture was then added to the cell lysate. Within 30 minutes after addition of enzyme, the bioluminescent product was measured in a luminometer (PHL Mediators, Austria or Berthold, Maryville, Tenn., or Turner Designs, Sunnyvale, Calif.) (See FIG. 1). The amount of light emitted (emission maximum 562 nm) was compared to a standard curve generated with ATP calibrators (0, 1, 10, 100, 1000 ng/mL). The concentration of ATP (ng/mL) in each sample was then calculated from the calibration curve using an Excel-based program provided by Cylex™.
(§1) To perform the assay, 200 μl of sodium heparin anticoagulated whole blood was diluted, aliquoted into wells of a 96-well microtiter plate and stimulated overnight with PHA. CD4+ cells were then selected using antibody-coated magnetic particles, washed and lysed to release intracellular ATP. The intensity of the patient's immune response was quantified by measuring the amount of intracellular ATP produced in response to stimulation.
as §1, with “Cylex™ Immune Cell Function Assay,” for “assay,”, “stimulation. Acute rejection was diagnosed by histopathologic studies of random and endoscopically guided multiple mucosal biopsies. […]” for “stimulation.”

Molecule: C[C@H]1C[C@@H]2[C@H]([C@@H](O)C[C@@]3(C)[C@H]2CC[C@]3(O)C(=O)COC(=O)CCC(=O)[O-])[C@@]2(C)C=CC(=O)C=C12.[Na+] [Solumedrol, methylprednisolone]
- change of immune response (ATP) (Case Study 2, Solumedrol re-initiated after week 43, read at week 44): dropped significantly

Molecule: OKT3: monoclonal antibody OKT3 (anti-CD3), antilymphocyte drug
- immune response (ATP) (Case Study 2, multivisceral transplant recipient with acute rejection, week 39, after initial infusion of OKT3/FK and Solumedrol): 954 ng/mL
- immune response (ATP) (Case Study 2, after additional three-day course of OKT3): 582 ng/mL
